Results from US10898469B2, “Imidazolylamide derivative” (Sumitomo Dainippon Pharma Co., Ltd., priority 2016, dated 2021).
pIC50: −log10 of the molar value. Like-named read-outs stand apart in the source and are kept apart here.

How the values were obtained:
Format in all cases: cell-based, human
HT-29 cells = assay: Inhibition test for sphere-forming ability of cancer cells (Test Example 1), HT-29; settings: for pIC50: concentration for 50% inhibition of cell proliferation, read-out: IC50 (μmol/L) HT-29 (Sphere IC50 value)
Source text: (§1) The reliable methods established for measuring the self-renewal ability of cells which is one of the CSC's properties include a method for measuring the sphere-forming ability of cancer cells in non-adherent condition in the absence of serum (Cancer Res 65, 5506-5511 (2005)). Human colorectal cancer-derived HCT-116 cells, human colon-adenocarcinoma-derived HT-29 cells, and human pharyngeal cancer-derived FaDu cells were available from American Type Culture Collection (ATCC). HCT-116 cells and HT-29 cells were cultured at 37° C. under 5% CO2 using the McCoy's 5a medium containing 10% fetal bovine serum (FBS) and 1% penicillin/streptomycin, and FaDu cells were cultured at 37° C. under 5% CO2 using the MEM medium containing 10% FBS, 1% non-essential amino acid, 1% sodium pyruvate, and 1% penicillin/streptomycin. HCT-116 cells, HT-29 cells, and FaDu cells were seeded in a 384 Well Black Clear Bottom Ultra-Low Attachment Microplate (Corning Cat. No. 3827) in an amount of 350-800 cells/well using the DMEM/F12 medium containing 2% B27 supplement (GIBCO), 20 ng/mL epidermal growth factor (EGF) (peprotech), 10 ng/mL basic fibroblast growth factor (bFGF) (peprotech), 5 μg/mL insulin (Sigma), and 1% penicillin/streptomycin. Each test compound was added into each well to adjust the final concentration of DMSO to 0.1%, and the cells were cultured for 4 days. The number of viable cells in each well was then measured with CellTiter-Glo® Luminescent Cell Viability Assay (Promega) to calculate the concentration of each test compound for 50% inhibition of cell proliferation (Sphere IC50 value; μmol/L).
(§2) The experiment of Test Example 1 was performed for each compound of each Example. The concentration of each test compound for 50% inhibition of cell proliferation (Sphere IC50 value; μmol/L) is shown in the following Table.

HCT-116 cells = assay: Inhibition test for sphere-forming ability of cancer cells (Test Example 1), HCT-116; settings: for pIC50: concentration for 50% inhibition of cell proliferation, read-out: IC50 (μmol/L) HCT-116 (Sphere IC50 value); for inhibitory effect on the sphere-forming ability of cancer cells: Test Example 1, summary in words, cell line not given (HCT-116, HT-29, FaDu tested)
Source text: as §1, §2

FaDu cells = assay: Inhibition test for sphere-forming ability of cancer cells (Test Example 1), FaDu; settings: for pIC50: concentration for 50% inhibition of cell proliferation, read-out: IC50 (μmol/L) FaDu (Sphere IC50 value)
Source text: as §1, §2

[1] = Homo sapiens, read-out: (100%-inhibition rate of cell proliferation) at 1 μmol/L, 1 μmol/L, value with %

Compound	pIC50 (HT-29 cells)	pIC50 (HCT-116 cells; HCT-116 cells)	pIC50 (FaDu cells)	further results
O=C(Nc1cn(Cc2cccc(C(F)(F)F)c2)cn1)c1ccc(=O)[nH]c1 [Example 199]				(100%-inhibition rate of cell proliferation) at 1 μmol/L, HT-29 (HT-29 cells; 1 μmol/L, value with %): 31.2%; (100%-inhibition rate of cell proliferation) at 1 μmol/L, HCT-116 (HCT-116 cells; HCT-116 cells, 1 μmol/L, value with %): 39.8%; (100%-inhibition rate of cell proliferation) at 1 μmol/L, FaDu (FaDu cells; 1 μmol/L, value with %): 25.9%
O=C(Nc1cn(Cc2cccc(Cl)c2)cn1)/C(F)=C/c1cccnc1 [Example 43, (Z)—N-(1-(3-Chlorobenzyl)-1H-imidazol-4-yl)-2-fluoro-3-(pyridin-3-yl)acrylamide]				pIC50 (HT-29 cells; Homo sapiens): 6.31; pIC50 (HCT-116 cells; Homo sapiens, HCT-116 cells): 6.07; pIC50 (FaDu cells; Homo sapiens): 6.16
O=C(Nc1cc(-c2ccccc2)n[nH]1)c1cn(Cc2cccc(Cl)c2)cn1 [Example 259]	6.13	6.04	6.13	
O=C(/C=C/c1ccc(-c2ccccc2)cc1)Nc1cn(Cc2cccc(Cl)c2)cn1 [Example 70]	7.10	5.05	7.05	
O=C(Nc1cn(Cc2cccc(C(F)(F)F)c2)cn1)/C(F)=C/c1cccnc1 [Example 106]				pIC50 (HT-29 cells; Homo sapiens): 6.10; pIC50 (HCT-116 cells; Homo sapiens, HCT-116 cells): 5.08; pIC50 (FaDu cells; Homo sapiens): 5.51
COc1ccc(/C=C/C(=O)Nc2cn(Cc3cccc(Cl)c3)cn2)cc1OCC(N)=O [Example 30]				pIC50 (HT-29 cells; Homo sapiens): < 5.00; pIC50 (HCT-116 cells; Homo sapiens, HCT-116 cells): < 5.00; pIC50 (FaDu cells; Homo sapiens): 6.15
O=C(/C=C/c1cccc(Br)c1)Nc1cn(Cc2cccc(Cl)c2)cn1 [Example 56]	5.18	5.24	5.35	
COCCOc1ccc(C(=O)Nc2cn(Cc3cccc(Cl)c3)cn2)cc1 [Example 265, N-[1-(3-Chlorobenzyl)-1H-imidazol-4-yl]-4-(2-methoxyethoxy)benzamide]				viability at 1 µM (HT-29 cells; [1]): 33.1%; viability at 1 µM (HCT-116 cells; Homo sapiens, read-out: (100%-inhibition rate of cell proliferation) at 1 μmol/L, HCT-116 cells, 1 μmol/L, value with %): 41.7%; viability at 1 µM (FaDu cells; [1]): 41.2%
Cc1ccc(F)c(Cn2cnc(NC(=O)/C=C/c3cccc(Oc4ccccc4)c3)c2)c1F [Example 114]				pIC50 (HT-29 cells; Homo sapiens): 6.16; pIC50 (HCT-116 cells; Homo sapiens, HCT-116 cells): 6.21; pIC50 (FaDu cells; Homo sapiens): 6.14
O=C(/C=C/c1ccccc1O)Nc1cn(Cc2cccc(Cl)c2)cn1 [Example 54]	5.09	5.08	6.09	
CC(=O)Nc1ccc(/C=C/C(=O)Nc2cn(Cc3cccc(Cl)c3)cn2)cn1 [Example 20, (E)-3-(6-Acetylaminopyridin-3-yl)-N-(1-(3-chlorobenzyl)-1H-imidazol-4-yl)acrylamide]				pIC50 (HT-29 cells; Homo sapiens): 8.00; pIC50 (HCT-116 cells; Homo sapiens, HCT-116 cells): 6.35; pIC50 (FaDu cells; Homo sapiens): 7.22
COc1ccc(/C=C/C(=O)Nc2cn(Cc3cccc(Cl)c3)cn2)cc1Cl [Example 80]	5.15	< 5.00	6.06	

More lines, main results first:

pIC50 (HT-29 cells)	pIC50 (HCT-116 cells; HCT-116 cells)	pIC50 (FaDu cells)	Compound	further results
6.19	6.09	6.10	CCOc1ccc(C(=O)Nc2cn(Cc3cccc(OC(F)(F)F)c3)cn2)cn1 [Example 213]	
7.05	6.13	6.25	O=C(/C=C/c1ccc(F)cc1)Nc1cn(Cc2cccc(Cl)c2)cn1 [Example 62]	
6.19	6.12	6.09	Cc1ccc(F)c(Cn2cnc(NC(=O)c3ccc(OCC(F)(F)F)nc3)c2)c1F [Example 223]	
5.26	5.17	5.26	Nc1ccc(C(=O)Nc2cn(Cc3cccc(Cl)c3)cn2)cn1 [Example 224]	
7.15	7.05	7.22	COc1ccc(/C=C/C(=O)Nc2cn(Cc3cccc(Cl)c3)cn2)cc1OC [Example 66]	inhibitory effect on the sphere-forming ability of cancer cells (HCT-116 cells): particularly potent inhibitory effect
7.30	7.10	7.22	O=C(/C=C/c1ccncc1)Nc1cn(Cc2cccc(Cl)c2)cn1 [Example 97]	inhibitory effect on the sphere-forming ability of cancer cells (HCT-116 cells): particularly potent inhibitory effect
6.17	6.08	6.05	CC(C)Oc1ccc(C(=O)Nc2cn(Cc3cccc(Cl)c3)cn2)cn1 [Example 207]	
5.32	< 5.00	5.01	O=C(Nc1cn(Cc2cccc(OC(F)(F)F)c2)cn1)c1ccc(OCC(F)(F)F)nc1 [Example 222]	
5.92	6.02	5.42	O=C(/C=C/c1ccccc1C(F)(F)F)Nc1cn(Cc2cccc(Cl)c2)cn1 [Example 55]	
